Entries after “also recorded” stand apart in the source; their conditions may differ.
What was measured:
Factor VII = conditions: LNP siRNA systems containing these lipids; cited from earlier work
supercoiled plasmid DNA = assay: Plasmid DNA cleavage by small-molecule strand breakers (gel electrophoresis); type: biochemical; conditions: for DNA cleavage activity on supercoiled plasmid: gel electrophoresis, FIG. 19A-19D; for DNA cleavage activity on supercoiled plasmid / Effect of reducing agent on DNA cleavage: supercoiled plasmid; for Effect of reducing agent on DNA cleavage: with reducing agent, FIG. 19A, 19B
Method: Nitracrine (compound 1.15) was synthesized according to the reaction scheme depicted in FIG. 5. Plasmid DNA was incubated with nitracrine alone (10, 12, 14 μM), nitracrine with exposure to UV (365 nm), or nitracrine with exposure to UV and reducing agent TCEP (FIG. 8A). The same experiment was repeated but using 16, 18, or 20 μM nitracrine (FIG. 8B).
Plasmid DNA was incubated with nitracrine alone (10, 12, 14 μM), nitracrine with exposure to UV (365 nm), or nitracrine with exposure to UV and reducing agent DTT (FIG. 9A). The same experiment was repeated but using 16, 18, or 20 μM nitracrine (FIG. 9B).
Plasmid DNA was incubated with 16 μM nitracrine and exposed to UV (365 nm) over a range of 30-60 minutes (FIG. 10).
DNA cleavage activity of synthetic strand breakers. A series of small molecule DNA strand breakers having diverse structures and cleavage mechanisms were tested (FIG. 19A-19D). A supercoiled plasmid was used as a model substrate DNA, as both single and double-strand breaks can easily be detected using gel electrophoresis.

pcDNA = pcDNA cleavage by compound 1.15, gel electrophoresis; type: biochemical
target DNA = assay: AsCpf1 activity, mutational analysis; type: biochemical

## CCCCC/C=C\C/C=C\CCCCCCCC(=O)OCC(CN(C)C)OC(=O)CCCCCCC/C=C\C/C=C\CCCCC (stereo not shown) [DLinDAP, 1,2-dilineoyl-3-dimethylammonium-propane]
Factor VII
  gene silencing potency in hepatocytes in vivo (rank order): DLinKC2-DMA>DLinKDMA>DLinDMA>>DLinDAP

## CCCCC/C=C\C/C=C\CCCCCCCCOCC(CN(C)C)OCCCCCCCC/C=C\C/C=C\CCCCC (stereo not shown) [DLinDMA, 1,2-dilinoleyloxy-3-N,N-dimethylaminopropane]
Factor VII
  gene silencing potency in hepatocytes in vivo (rank order): DLinKC2-DMA>DLinKDMA>DLinDMA>>DLinDAP

## CCCCC/C=C\C/C=C\CCCCCCCCC1(CCCCCCCC/C=C\C/C=C\CCCCC)OCC(CCN(C)C)O1 (stereo not shown) [DLinKC2-DMA, 1,2-dilinoleyl-4-(2-dimethylaminoethyl)-[1,3]-dioxolane]
Factor VII
  gene silencing potency in hepatocytes in vivo (rank order): DLinKC2-DMA>DLinKDMA>DLinDMA>>DLinDAP

## CCCCC/C=C\C/C=C\CCCCCCCCC1(CCCCCCCC/C=C\C/C=C\CCCCC)OCC(CN(C)C)O1 (stereo not shown) [DLinKDMA, 1,2-dilinoleyloxy-keto-N,N-dimethyl-3-aminopropane]
Factor VII
  gene silencing potency in hepatocytes in vivo (rank order): DLinKC2-DMA>DLinKDMA>DLinDMA>>DLinDAP

## CC(C)C(=O)O[C@H]1c2c(c3c(=O)c4cccc(O)c4c(=O)c=3c2=[N+]=[N-])[C@@H](O)[C@H]2O[C@@]21C [FL-120B]
Supercoiled plasmid DNA
  DNA cleavage activity on supercoiled plasmid: cleave DNA at low micromolar concentrations
  Effect of reducing agent on DNA cleavage: accelerated by a reducing agent

## CC[C@@]1(O[C@H]2C[C@H](OC)[C@@H](O)[C@H](C)O2)[C@H](O[C@@H]2C[C@H](O)[C@@H](N(C)C)[C@H](C)O2)C2=Cc3c(O)c4c(c(O)c3C2=C(O)[C@@H]1[C@H]1C(=O)c2c(c(=[N+]=[N-])c3c(O)c5c(=O)ccc(=O)c5c(O)c23)[C@@H](O[C@@H]2C[C@H](O)[C@@H](N(C)C)[C@H](C)O2)[C@@]1(CC)O[C@H]1C[C@H](OC)[C@@H](O)[C@H](C)O1)C(=O)C=CC4=O [Lomaiviticin C]
Supercoiled plasmid DNA
  DNA cleavage activity on supercoiled plasmid: cleave DNA at low micromolar concentrations
  Effect of reducing agent on DNA cleavage: accelerated by a reducing agent

## CN(C)CCCNc1c2ccccc2nc2cccc([N+](=O)[O-])c12 [Nitracrine]
Supercoiled plasmid DNA; plasmid DNA, 16 μM nitracrine, UV 365 nm for 30-60 minutes
  DNA cleavage over UV exposure time: Cleavage was observed under all conditions
Supercoiled plasmid DNA; plasmid DNA, nitracrine 10-20 μM, UV 365 nm
  DNA cleavage with exposure to UV: DNA cleavage was observed at all nitracrine concentrations
Supercoiled plasmid DNA; plasmid DNA, nitracrine 10-20 μM, UV 365 nm, DTT
  DNA cleavage with exposure to UV and reducing agent DTT: including with DTT
Supercoiled plasmid DNA
  DNA cleavage activity on supercoiled plasmid: cleaves DNA when irradiated by light

## CN(C)CCCNc1c2ccccc2nc2cccc([N+](=O)[O-])c12 [compound 1.15, nitracrine]
pcDNA; 16 μM, UV (365 nm) from 30 to 60 min
  pcDNA cleavage: pcDNA cleavage
pcDNA; 10-20 μM, UV (365 nm), presence and absence of reducing agent DTT
  pcDNA cleavage: pcDNA cleavage
pcDNA; 10-20 μM, UV (365 nm), presence and absence of reducing agent TCEP
  pcDNA cleavage: pcDNA cleavage

## G783P: AsCpf1 mutant, WED
Target DNA
  activity: reduced activities; also recorded: Reduced activity

## R176A: AsCpf1 mutant, REC1
Target DNA
  activity: reduced activities; also recorded: Reduced activity

## R192A: AsCpf1 mutant, REC1
Target DNA
  activity: reduced activities; also recorded: Reduced activity

## R951A: AsCpf1 mutant, bridge helix
Target DNA
  activity: reduced activities
